From patent US6372297B1, “Wood preservative oxathiazines” (Uniroyal Chemical Company, Inc., priority 1993, dated 2002)

Tests used:
[1] = tested on: mixed spore suspension: Aureobasidium pullulans, Aspergillus amstelodami, Ceratocystis pilifera, Cladosporium sp., Penicillium sp., Sclerophomas entoxylina …; experiment: Control of molds and sapstain fungi in mini-board test; parameters: key to Surface score of treated mini-boards, 3 week incubation, 1500 ppm / Surface score of treated mini-boards, 3 week incubation, 2500 ppm: 0: Free of fungal growth; 1: Traces of fungal growth; 2: Little fungal growth; 3: Moderate fungal growth; 4: Vigorous to maximum growth (all surfaces covered with fungal growth)
Text: Representative compounds of this invention to be tested, were suspended in an aqueous solution containing 7.5% GENAPOL X 080™ (Hoechst-Celanese Corporation), and 20% propylene glycol monomethyl ether, to prepare the test solutions. […]
Deep frozen boards (300×50×10 mm) of freshly felled sapwood of Pinus sylvestrus (mini-boards) were thawed at room temperature. One half of each mini-board was immersed in a test solution for 20 seconds. The mini-boards were then sprayed with mixed spore suspension containing the following fungi:
Sclerophomas entoxylina, and
and stored in incubation boxes at 25° C. and at 100% relative humidity, for three weeks. For each compound tested, each concentration of test solution was applied to five different mini-boards.
The efficacy of the test compounds was determined by comparing the fungal growth on both the treated and untreated parts of the mini-boards.
The degree of infection was scored according to the following scale:
1=Traces of fungal growth
4=Vigorous to maximum growth (all surfaces covered with fungal growth)

[2] = tested on: blue-stain fungi and molds; experiment: Activity against blue-stain fungi and molds on a stick test on vermiculite (paint film); parameters: key to Surface score of wooden sticks treated with paint formulation, C. cladosporioides / Surface score of wooden sticks treated with paint formulation, P. purpurogenum / Surface score of wooden sticks treated with paint formulation, P. violacea / Surface score of wooden sticks treated with paint formulation, R rubra (y) / Surface score of wooden sticks treated with paint formulation, S. chartarum / Surface score of wooden sticks treated with paint formulation, A. versicolor / Surface score of wooden sticks treated with paint formulation, A. pullulans: 0: No growth; Trace of growth of up to 1% coverage of the test inoculated area; 2: Growth covering between 1 and 10% of the inoculated test area; Growth covering between 10 and 30% of the inoculated test area; 4: Growth covering between 30 and 70% of the inoculated test area; 5: Growth covering more than 70t of the inoculated test area; conditions: 12 weeks on vermiculite; for Surface score of wooden sticks treated with paint formulation, R rubra (y): R rubra (yeast)
Experimental: Beech sticks (73×18×2 mm) Fagus sylvatica were painted, allowed to dry, and sterilized by γ-radiation (1.2 mRad). […] The coated sticks prepared above were then dipped in a spore suspension of pure culture of each fungus. Seven sticks each were placed in autoclaved Petri dishes (200 mm in diameter, 30 mm in height) containing 300 ml of vermiculite and 120 ml of water, and incubated for 12 weeks. The surfaces of the sticks were then examined for the growth of fungus and were evaluated according to the following scoring system: 0: No growth 1: […] 2: […] 3: […] 4. […] 5. Growth covering more than 70t of the inoculated test area.

[3] = tested on: mixed spore suspension of blue-stain fungus and molds; experiment: Activity against blue-stain fungi and molds in a mold cabinet test (BS3900: Part G6)
Experimental: Using the methods described in BS3900: Part G6: 1989, British Standard Methods of test for paints, “Assessment of resistance to fungal growth”, representative compounds of this invention were tested for activity against blue-stain fungus and molds in a mold cabinet test. In brief, sticks of Scots pine (Pinus sylvestris) measuring 75×100×10 mm, were painted, allowed to dry, and sterilized by […] (1.2 mRad). […] The sticks were then with each solution. The inoculation consisted of dipping the sticks in a mixed spore suspension, then placing them in a mold chamber and incubating them for 12 weeks. The surfaces were evaluated according the following score system: 0: No growth 1: […] 2: […] 3: […] 4. […] 5. Growth covering more than 70% of the inoculated test area.

[4] = tested on: molds and blue-stain fungi; experiment: In vitro activity against molds and blue-stain fungi, poison plate assay (MIC); type: cell-based; conditions: malt extract agar, complete inhibition
Experimental: The effect of the representative compounds on the growth of certain molds and blue-strain fungi were determined using a poison plate assay according to the following procedure: The solutions of the representative compounds prepared above were further diluted with sterile water to desired concentrations and poured into Petri dishes. Malt extract agar medium was then added aseptically to the Petri dishes and to Petri dishes containing no compound (controls). The Petri dishes were then shaken to provide a uniform distribution of the agar medium. Each Petri dish containing compound and each control Petri dish, was then inoculated with a fungus and incubated for a period of time sufficient to permit complete growth of the fungus in the respective control Petri dish. The Petri dishes containing compound were then examined to determine the amount of inhibition of fungi for each concentration of compound tested.

[5] = tested on: blue-stain fungi and molds; experiment: Activity against blue-stain fungi and molds in a stick test (threshold concentrations); conditions: beech sticks, 22° C., 90% relative humidity
Experimental: Representative compounds of this invention were dissolved in 50% ethanol. Each compound was then diluted serially using 50% ethanol. […] After three (3) hours, the solutions containing the test compounds were poured off and the treated sticks were allowed to dry in a sterile laminar air flow. Each treated stick was then placed in a Petri dish which had been previously seeded with inoculum. Two drops of a test fungal or spore suspension were pipetted onto the upper surface of each treated stick. The Petri dishes containing the treated sticks were incubated at 22° C. and 90% relative humidity. The treated sticks were evaluated after there was sufficient growth of fungus on control sticks (i.e., untreated sticks) incubated in the same manner. The following score system was used: 0: Stick free of fungal/mold growth 1: Traces of fungal growth on the stick 2: Slight growth (5 to 25% of the surface covered with fungal growth) 3: Moderate growth (25 to 50% covered with fungal growth) 4. Vigorous to maximum fungal growth (more than 50% growth) […]

SMILES: [O-][S+]1CCON=C1c1ccc(Br)s1 (stereo not drawn) [Compound 36]
- Surface score of treated mini-boards, 3 week incubation, 1500 ppm [1]: 0.2
- Surface score of treated mini-boards, 6 week incubation, 1500 ppm [1]: 2.6
- Surface score of treated mini-boards, 3 week incubation, 2500 ppm [1]: 0
- Surface score of treated mini-boards, 6 week incubation, 2500 ppm [1]: 1.4
- Surface score of wooden sticks treated with paint formulation, A. pullulans ([2]; 0.15% a.i. in paint): 0
- Surface score of wooden sticks treated with paint formulation, A. pullulans ([2]; 0.3% a.i. in paint): 0
- Surface score of wooden sticks treated with paint formulation, A. versicolor ([2]; 0.15% a.i. in paint): 0
- Surface score of wooden sticks treated with paint formulation, A. versicolor ([2]; 0.3% a.i. in paint): 0
- Surface score of wooden sticks treated with paint formulation, C. cladosporioides ([2]; 0.15% a.i. in paint): 0
- Surface score of wooden sticks treated with paint formulation, C. cladosporioides ([2]; 0.3% a.i. in paint): 0
- Surface score of wooden sticks treated with paint formulation, P. purpurogenum ([2]; 0.15% a.i. in paint): 1 (Trace of growth of up to 1% coverage of the test inoculated area)
- Surface score of wooden sticks treated with paint formulation, P. purpurogenum ([2]; 0.3% a.i. in paint): 1 (Trace of growth of up to 1% coverage of the test inoculated area)
- Surface score of wooden sticks treated with paint formulation, P. violacea ([2]; 0.15% a.i. in paint): 3 (Growth covering between 10 and 30% of the inoculated test area)
- Surface score of wooden sticks treated with paint formulation, P. violacea ([2]; 0.3% a.i. in paint): 1 (Trace of growth of up to 1% coverage of the test inoculated area)
- Surface score of wooden sticks treated with paint formulation, R rubra (y) ([2]; 0.15% a.i. in paint): 0
- Surface score of wooden sticks treated with paint formulation, R rubra (y) ([2]; 0.3% a.i. in paint): 0
- Surface score of wooden sticks treated with paint formulation, S. chartarum ([2]; 0.15% a.i. in paint): 0
- Surface score of wooden sticks treated with paint formulation, S. chartarum ([2]; 0.3% a.i. in paint): 0
- Surface score of wooden sticks treated with paint formulation, U. atrum ([2]; 0.15% a.i. in paint): 3 (Growth covering between 10 and 30% of the inoculated test area)
- Surface score of wooden sticks treated with paint formulation, U. atrum ([2]; 0.3% a.i. in paint): 1 (Trace of growth of up to 1% coverage of the test inoculated area)
- Surface score in a paint formulation in a mold cabinet test, 6 weeks ([3]; 0.15% in water-based paint): 2.5
- Surface score in a paint formulation in a mold cabinet test, 12 weeks ([3]; 0.15% in water-based paint): 4.5
- Surface score in a paint formulation in a mold cabinet test, 6 weeks ([3]; 0.3% in water-based paint): 2.5
- Surface score in a paint formulation in a mold cabinet test, 12 weeks ([3]; 0.3% in water-based paint): 4.0

SMILES: Cc1ccc(C2=NOCC[S+]2[O-])s1 (stereo not drawn) [Compound 48]
- Surface score of treated mini-boards, 3 week incubation, 1500 ppm [1]: 0
- Surface score of treated mini-boards, 6 week incubation, 1500 ppm [1]: 1.4
- Surface score of treated mini-boards, 3 week incubation, 2500 ppm [1]: 0
- Surface score of treated mini-boards, 6 week incubation, 2500 ppm [1]: 0.8

SMILES: Cc1ccc(C2=NOCCS2(=O)=O)s1 [Compound 49]
- Surface score of treated mini-boards, 3 week incubation, 1500 ppm [1]: 0
- Surface score of treated mini-boards, 6 week incubation, 1500 ppm [1]: 1.8
- Surface score of treated mini-boards, 3 week incubation, 2500 ppm [1]: 0
- Surface score of treated mini-boards, 6 week incubation, 2500 ppm [1]: 1.2

SMILES: O=S1(=O)CCON=C1c1ccsc1 [Compound 78]
- Surface score of treated mini-boards, 3 week incubation, 1500 ppm [1]: 0.2
- Surface score of treated mini-boards, 6 week incubation, 1500 ppm [1]: 1.2
- Surface score of treated mini-boards, 3 week incubation, 2500 ppm [1]: 0.2
- Surface score of treated mini-boards, 6 week incubation, 2500 ppm [1]: 1.8

SMILES: [O-][S+]1CCON=C1c1ccsc1 (stereo not drawn) [Compound 79]
- Surface score of treated mini-boards, 3 week incubation, 1500 ppm [1]: 1.0
- Surface score of treated mini-boards, 6 week incubation, 1500 ppm [1]: 3.0
- Surface score of treated mini-boards, 3 week incubation, 2500 ppm [1]: 0
- Surface score of treated mini-boards, 6 week incubation, 2500 ppm [1]: 1.8

SMILES: [O-][S+]1CCON=C1c1cc2ccccc2s1 (stereo not drawn) [Compound 87]
- MIC (ppm) against A. amstelodami ([4]; A. amstelodami): 5 ppm
- MIC (ppm) against A. niger ([4]; A. niger): 2.5 ppm
- MIC (ppm) against A. pullulans ([4]; A. pullulans): 10 ppm
- MIC (ppm) against A. versicolor ([4]; A. versicolor): 2.5 ppm
- MIC (ppm) against C. cladosporioides ([4]; C. cladosporioides): 25 ppm
- MIC (ppm) against C. pilifera ([4]; C. pilifera): 2.5 ppm
- MIC (ppm) against F. solani ([4]; F. solani): 10 ppm
- MIC (ppm) against G. candidum ([4]; G. candidum): 25 ppm
- MIC (ppm) against P. purpurogenum ([4]; P. purpurogenum): 2.5 ppm
- MIC (ppm) against P. variotii ([4]; P. variotii): 10 ppm
- MIC (ppm) against P. violacea ([4]; P. violacea): 10 ppm
- MIC (ppm) against S. atra ([4]; S. atra): 2.5 ppm
- MIC (ppm) against S. entoxylina ([4]; S. entoxylina): 5 ppm
- MIC (ppm) against T. viride ([4]; T. viride): 10 ppm
- MIC (ppm) against U. atrum ([4]; U. atrum): 10 ppm
- Threshold concentration (ppm), A. niger, score 0 ([5]; A. niger, minimum concentration to obtain score 0): 1000 ppm
- Threshold concentration (ppm), A. niger, score 1-2 ([5]; A. niger, minimum concentration to obtain score 1-2): 250-500 ppm
- Threshold concentration (ppm), Aureobasidium, score 0 ([5]; Aureobasidium, minimum concentration to obtain score 0): 1000 ppm
- Threshold concentration (ppm), Aureobasidium, score 1-2 ([5]; Aureobasidium, minimum concentration to obtain score 1-2): 100-250 ppm
- Threshold concentration (ppm), Sclerophoma, score 0 ([5]; Sclerophoma, minimum concentration to obtain score 0): 100 ppm
- Threshold concentration (ppm), Sclerophoma, score 1-2 ([5]; Sclerophoma, minimum concentration to obtain score 1-2): 50-100 ppm
- Threshold concentration (ppm), Trichoderma, score 0 ([5]; Trichoderma, minimum concentration to obtain score 0): 5000 ppm
- Threshold concentration (ppm), Trichoderma, score 1-2 ([5]; Trichoderma, minimum concentration to obtain score 1-2): 1000-2500 ppm
